IC50 and Ki data for eleven compounds are collected here from patent US9067871B2, “Aminotetraline derivatives, pharmaceutical compositions containing them, and their use in therapy” (ABBVIE DEUTSCHLAND GMBH & CO KG, priority 2009, dated 2015).

SMILES strings stand for the structures. Structures can show the parent of a compound that is named as a salt. Where two headings read alike, the source gives them in different places.

The target in experiment [1] is human GlyT1c (Homo sapiens (Human), UniProt P48067). Nature of the experiment: [3H]-Glycine uptake into recombinant CHO cells expressing human GlyT1. The experiment is classed as cell-based. The procedure:
1. [^3H]-Glycine uptake into recombinant CHO cells expressing human GlyT1: Human GlyT1c expressing recombinant hGlyT1c—5_CHO cells were plated at 20,000 cells per well in 96 well Cytostar-T scintillation microplates (Amersham Biosciences) and cultured to sub-confluency for 24 h. […] 80 μl HBSS buffer were added, followed by 10 μl inhibitor or vehicle (10% DMSO) and 10 μl [^3H]-glycine (TRK71, Amersham Biosciences) to a final concentration of 200 nM for initiation of glycine uptake. The plates were placed in a Wallac Microbeta (PerkinElmer) and continuously counted by solid phase scintillation spectrometry during up to 3 hours. Nonspecific uptake was determined in the presence of 10 μM Org24598.

Experiment [2] addresses human GlyT1c transporter (Homo sapiens (Human), UniProt P48067). Nature of the experiment: Radioligand binding assay using recombinant CHO cell membranes expressing human GlyT1. The conditions noted are these: read-out: radioligand binding Kiapp. The text has this: 2. Radioligand binding assays using recombinant CHO cell membranes expressing human GlyT1: […]
[3] abbreviates: hGlyT1c_5_CHO cells, 200 nM [3H]-glycine.
Setting [4] is: human GlyT1c-expressing CHO cell membranes.

Sequence of human GlyT1c transporter (P48067 whole entry): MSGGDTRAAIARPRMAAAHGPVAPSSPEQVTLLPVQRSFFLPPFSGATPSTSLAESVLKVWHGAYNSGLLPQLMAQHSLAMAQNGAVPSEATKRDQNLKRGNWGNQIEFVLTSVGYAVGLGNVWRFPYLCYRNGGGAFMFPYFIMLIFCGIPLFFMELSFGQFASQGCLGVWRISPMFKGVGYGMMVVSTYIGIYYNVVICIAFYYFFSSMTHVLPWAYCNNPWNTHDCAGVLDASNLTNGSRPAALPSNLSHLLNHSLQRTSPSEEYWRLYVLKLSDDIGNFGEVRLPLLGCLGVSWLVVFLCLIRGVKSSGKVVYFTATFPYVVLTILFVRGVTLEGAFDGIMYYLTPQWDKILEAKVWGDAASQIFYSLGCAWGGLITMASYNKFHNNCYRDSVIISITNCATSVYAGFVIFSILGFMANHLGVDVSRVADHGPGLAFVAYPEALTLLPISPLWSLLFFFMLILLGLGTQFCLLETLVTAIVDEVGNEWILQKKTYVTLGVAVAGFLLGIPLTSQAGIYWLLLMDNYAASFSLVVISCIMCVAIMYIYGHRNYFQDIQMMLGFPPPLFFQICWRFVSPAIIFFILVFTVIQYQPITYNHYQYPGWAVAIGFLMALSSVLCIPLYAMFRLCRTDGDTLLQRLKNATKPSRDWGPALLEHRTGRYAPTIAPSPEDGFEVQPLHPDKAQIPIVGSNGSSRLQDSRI
Sequence of human GlyT1c (P48067 whole entry): as above

Broadly, the IC50 is the point on the concentration scale where inhibition reaches its midpoint. On to `CCOC(=O)NC1CCc2ccc(OCCNS(=O)(=O)c3cc(C)cs3)cc2C1Cc1cccc(Cl)c1` (stereo not shown) [Example 54, {1-(3-Chloro-benzyl)-7-[2-(4-methyl-thiophene-2-sulfonylamino)-ethoxy]-1,2,3,4-tetrahydro-naphthalen-2-yl}-carbamic acid ethyl ester], for which the IC50 in experiment [1] (setting [3]) was not below 100 µM. Further, the Ki in experiment [2] (setting [4]) was not above 10 µM.
`CCCS(=O)(=O)NCCOc1ccc2c(c1)C(Cc1cccc(Cl)c1)C(N)CC2` (stereo not shown) [Example 55, Propane-1-sulfonic acid {2-[7-amino-8-(3-chloro-benzyl)-5,6,7,8-tetrahydro-naphthalen-2-yloxy]-ethyl}-amide hydrochloride]: in experiment [1], the IC50 was not above 0.1 µM. Moreover, the Ki in experiment [2] was not above 0.01 µM.
Regarding `NC1CCc2ccc(OCCNS(=O)(=O)c3cccs3)cc2C1Cc1cccc(Cl)c1` (stereo not shown) [Example 56, Thiophene-2-sulfonic acid {2-[7-amino-8-(3-chloro-benzyl)-5,6,7,8-tetrahydro-naphthalen-2-yloxy]-ethyl}-amide], the IC50 in experiment [1] (setting [3]) was not above 1 µM. Besides, in experiment [2] (setting [4]), the Ki was not above 0.1 µM.
Take `Cc1nc(C)c(S(=O)(=O)NCCOc2ccc3c(c2)C(Cc2cccc(Cl)c2)C(N)CC3)s1` (stereo not shown) [Example 57, 2,4-Dimethyl-thiazole-5-sulfonic acid {2-[7-amino-8-(3-chloro-benzyl)-5,6,7,8-tetrahydronaphthalen-2-yloxy]-ethyl}-amide]: in experiment [1] (setting [3]), the IC50 is not above 10 µM. The Ki in experiment [2] (setting [4]) was not above 1 µM.
On the same counts, the results for `Cc1ncc(S(=O)(=O)NCCOc2ccc3c(c2)C(Cc2cccc(Cl)c2)C(N)CC3)[nH]1` (stereo not shown) [Example 58, 2-Methyl-3H-imidazole-4-sulfonic acid {2-[7-amino-8-(3-chloro-benzyl)-5,6,7,8-tetrahydronaphthalen-2-yloxy]-ethyl}-amide] are not above 10 µM and not above 1 µM.
On the same counts, the results for `NC1CCc2ccc(OCCNS(=O)(=O)c3ccc(Cl)s3)cc2C1Cc1cccc(Cl)c1` (stereo not shown) [Example 59, 5-Chloro-thiophene-2-sulfonic acid {2-[7-amino-8-(3-chloro-benzyl)-5,6,7,8-tetrahydronaphthalen-2-yloxy]-ethyl}-amide] are not above 10 µM and not above 1 µM.
Consider `CCOC(=O)NC1CCc2ccc(OCCNS(=O)(=O)c3cc(C)sc3C)cc2C1Cc1cccc(Cl)c1` (stereo not shown) [Example 60, {1-(3-Chloro-benzyl)-7-[2-(2,5-dimethyl-thiophene-3-sulfonylamino)-ethoxy]-1,2,3,4-tetrahydro-naphthalen-2-yl}-carbamic acid ethyl ester], for which the concentration for half-maximal inhibition (IC50) in experiment [1] (setting [3]) is not below 100 µM. Further, the Ki in experiment [2] (setting [4]) is not above 10 µM.
For `CCOC(=O)NC1CCc2ccc(OCCNS(=O)(=O)c3cnn(CC)c3)cc2C1Cc1cccc(Cl)c1` (stereo not shown) [Example 61, {1-(3-Chloro-benzyl)-7-[2-(1-ethyl-1H-pyrazole-4-sulfonylamino)-ethoxy]-1,2,3,4-tetrahydro-naphthalen-2-yl}-carbamic acid ethyl ester], the 50% inhibitory concentration (IC50) in experiment [1] (setting [3]) is not above 1000 µM. The Ki in experiment [2] (setting [4]) was not above 10 µM.
Turning to `CCOC(=O)NC1CCc2ccc(OCCNS(=O)(=O)c3cnn(C)c3)cc2C1Cc1ccc(Cl)cc1Cl` (stereo not shown) [Example 62, {1-(2,4-Dichloro-benzyl)-7-[2-(1-methyl-1H-pyrazole-4-sulfonylamino)-ethoxy]-1,2,3,4-tetrahydro-naphthalen-2-yl}-carbamic acid ethyl ester], in experiment [1] (setting [3]), the IC50 was not above 1000 µM. The Ki in experiment [2] (setting [4]) is not above 10 µM.
On the same counts, the results for `CCOC(=O)NC1CCc2ccc(OCCNS(=O)(=O)c3cccs3)cc2C1Cc1ccc(Cl)cc1Cl` (stereo not shown) [Example 63, {1-(2,4-Dichloro-benzyl)-7-[2-(thiophene-2-sulfonylamino)-ethoxy]-1,2,3,4-tetrahydronaphthalen-2-yl}-carbamic acid ethyl ester] are not below 100 µM and not above 10 µM.
`CCOC(=O)NC1CCc2ccc(OCCNS(=O)(=O)c3ccc(C)s3)cc2C1Cc1ccc(Cl)cc1Cl` (stereo not shown) [Example 64, {1-(2,4-Dichloro-benzyl)-7-[2-(5-methyl-thiophene-2-sulfonylamino)-ethoxy]-1,2,3,4-tetrahydro-naphthalen-2-yl}-carbamic acid ethyl ester]: the half-maximal inhibitory concentration (IC50) in experiment [1] (setting [3]) was not above 1000 µM. For the same compound, the Ki in experiment [2] (setting [4]) was not above 10 µM.
